Assays:
[1] = tested on: DOHH2 cells; assay: Cell proliferation inhibition in vitro, DOHH2 cells by CTG assay; format: cell-based; details: Homo sapiens, DOHH-2, 72 hours, read-out: Inhibitions of cell activities IC50 (nM) DOHH2
[2] = Pharmacokinetic test in SD rats (oral 10 mg/kg, intravenous 1 mg/kg); format: in vivo; details: SD rat; for F (po) %: oral 10 mg/kg vs intravenous 1 mg/kg; for clearance / half-life / AUC / Cmax / Tmax: male, plasma; for clearance / half-life: intravenous 1 mg/kg; for clearance: read-out: Cl (iv) (converted); for half-life: read-out: T½ (iv) h (converted); for AUC / Cmax / Tmax: oral 10 mg/kg
Protocol: SD rat, male (purchased from Shanghai Sippr-Bk Laboratory Animal Co., Ltd.), each tested compound was administered at a single dose to SD rats by oral administration (10 mg/kg, 3 rats in each group) and intravenous administration (1 mg/kg, 3 rats in each group) for the pharmacokinetic study. The tested compounds were dissolved using DMSO/[…] sodium chloride injection=5/95 (V/V), and vortexed for 1 minute, and after 1 minute of sonication, the compounds were formulated into solutions for administrations. Animals were fasted for 16-17 hours prior to oral administration and feeding was restored 4 hours after administration. After oral and intravenous administration, pharmacokinetic samples were collected from SD rats by jugular vein or cardiac puncture at the following time points: before administration, 5 minute, 15 minute, 30 minute, 1 hour, 2 hours, 4 hours, 6 hours, 8 hours and 24 hours after administration. 3 whole blood samples were collected at each time point, and the collected amount was about 0.2 mL, and the collected samples were anticoagulated by heparin sodium. After collection, the blood samples were immediately placed on ice and centrifuged to separate plasma within 30 minutes (centrifugation conditions: 8000 rpm, 6 minute, 2-8° C.). The collected plasma was stored at −70° C. prior to analysis. 50 μL of plasma sample was brought into a 1.5 mL centrifuge tube, 250 μL of internal standard solution (blank with no internal standard but the same volume of methanol added) was added, blended with vortex, centrifuged at 15000 rpm for 5 minutes. 200 μL of supernatant was taken and added to a 96-well sample plate and the samples were analyzed by LC-MS/MS.

[3] = tested on: OCI-LY10 cells; assay: Cell proliferation inhibition in vitro, OCI-ly10 cells by CCK-8 method; format: cell-based; details: Homo sapiens, 72 hours, read-out: Inhibitions of cell activities IC50 (nM) OCI-LY10
[4] = target: hERG potassium channel (Homo sapiens (Human), UniProt Q12809); assay: hERG experiment to investigate potential cardiotoxicity (manual patch clamp, CHO hERG cells); format: cell-based; details: whole cell patch clamp, tail current
Protocol: CHO hERG cells were grown in a culture dish containing the above medium, and cultured in an incubator at 37° C. and 5% CO2. CHO hERG cells were transferred to circular glass slides placed in the culture dish 24-48 hours prior to electrophysiological experiments and grown under the same medium and culture conditions as above. The density of CHO hERG cells on each circular slide shall meet the requirement that most of the cells are independent and individual.
2: Preparation of Experimental Solutions
3: Electrophysiological Recording System
A manual patch clamp system (HEKA EPC-10 signal amplifier and digital conversion system, purchased from HEKA Electronics, Germany) is used in this experiment for whole cell currents recording. A circular slide with CHO hERG cells grown on its surface was placed in an electrophysiology recording tank under an inverted microscope. The extracellular fluid was continuously perfused in the recording tank (about 1 ml per minute). A conventional whole cell patch clamp current recording technique was used in the experimental procedure. Unless otherwise specified, the experiments were carried out at conventional room temperature (about 25° C.). The cells were clamped at a voltage of −80 mV. The clamp voltage for cells was depolarized to +20 mV to activate the hERG potassium channel, and after 5 seconds, the cells were clamped to −50 mV to eliminate inactivation and generate a tail current. The tail current peak was used as the value of the hERG current magnitude. After the hERG potassium current recorded in the above step was stable under the continuous extracellular fluid perfusion in the recording tank, the drug to be tested can be perfused simultaneously and filled until the inhibitory effect of the drug on the hERG current reached a steady state. Generally, the superposition of the last three consecutive current recording lines was used as a criterion for judging whether or not the state was stable. After reaching a steady state, a wash with extracellular fluid perfusion was conducted until the hERG returned to that before the drug was added. One cell can be used to test one or more drugs, or multiple concentrations of the same drug, but need to be washed with an extracellular fluid between different drugs. Cisapride (purchased from Sigma) was used as a positive control in the experiment to ensure that the cells used were of normal quality.
4: Treatment and Dilution of Compounds
Prior to testing, the compounds were first diluted to 10, 3, 1, 0.3, and 0.1 mM stock solutions by a method of gradual dilution with DMSO, and were then diluted to the final M test concentration with extracellular fluids. The final concentration of DMSO in each of the other compound solutions was 0.1%, except that the DMSO concentration in the 30 μM compound test solution was 0.3%. The test concentration of the positive control (Cisapride) was 0.1 μM. All compound solutions were sonicated and shaken for a routine of 5 to 10 minutes to ensure complete dissolution of the compounds.
The test data were analyzed by HEKA Patchmaster, Microsoft Excel and data analysis software provided by Graphpad Prism.

[5] = tested on: TMD8 cells; assay: Cell proliferation inhibition in vitro, TMD8 cells by CCK-8 method; format: cell-based; details: Homo sapiens, 72 hours, read-out: Inhibitions of cell activities IC50 (nM) TMD8
[6] = target: BTK kinase (Homo sapiens (Human), UniProt Q06187); assay: In vitro assay for the inhibition of BTK kinase activity (Mobility-Shift Assay); format: biochemical
How it was run: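 Fluorescently labelled peptide substrate converted by the kinase; substrate and phosphorylated product separated by charge on a microfluidic chip (mobility shift) and quantified separately. Results expressed as conversion rate; control wells received 100% DMSO.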

Sequence of hERG potassium channel (Q12809 whole entry): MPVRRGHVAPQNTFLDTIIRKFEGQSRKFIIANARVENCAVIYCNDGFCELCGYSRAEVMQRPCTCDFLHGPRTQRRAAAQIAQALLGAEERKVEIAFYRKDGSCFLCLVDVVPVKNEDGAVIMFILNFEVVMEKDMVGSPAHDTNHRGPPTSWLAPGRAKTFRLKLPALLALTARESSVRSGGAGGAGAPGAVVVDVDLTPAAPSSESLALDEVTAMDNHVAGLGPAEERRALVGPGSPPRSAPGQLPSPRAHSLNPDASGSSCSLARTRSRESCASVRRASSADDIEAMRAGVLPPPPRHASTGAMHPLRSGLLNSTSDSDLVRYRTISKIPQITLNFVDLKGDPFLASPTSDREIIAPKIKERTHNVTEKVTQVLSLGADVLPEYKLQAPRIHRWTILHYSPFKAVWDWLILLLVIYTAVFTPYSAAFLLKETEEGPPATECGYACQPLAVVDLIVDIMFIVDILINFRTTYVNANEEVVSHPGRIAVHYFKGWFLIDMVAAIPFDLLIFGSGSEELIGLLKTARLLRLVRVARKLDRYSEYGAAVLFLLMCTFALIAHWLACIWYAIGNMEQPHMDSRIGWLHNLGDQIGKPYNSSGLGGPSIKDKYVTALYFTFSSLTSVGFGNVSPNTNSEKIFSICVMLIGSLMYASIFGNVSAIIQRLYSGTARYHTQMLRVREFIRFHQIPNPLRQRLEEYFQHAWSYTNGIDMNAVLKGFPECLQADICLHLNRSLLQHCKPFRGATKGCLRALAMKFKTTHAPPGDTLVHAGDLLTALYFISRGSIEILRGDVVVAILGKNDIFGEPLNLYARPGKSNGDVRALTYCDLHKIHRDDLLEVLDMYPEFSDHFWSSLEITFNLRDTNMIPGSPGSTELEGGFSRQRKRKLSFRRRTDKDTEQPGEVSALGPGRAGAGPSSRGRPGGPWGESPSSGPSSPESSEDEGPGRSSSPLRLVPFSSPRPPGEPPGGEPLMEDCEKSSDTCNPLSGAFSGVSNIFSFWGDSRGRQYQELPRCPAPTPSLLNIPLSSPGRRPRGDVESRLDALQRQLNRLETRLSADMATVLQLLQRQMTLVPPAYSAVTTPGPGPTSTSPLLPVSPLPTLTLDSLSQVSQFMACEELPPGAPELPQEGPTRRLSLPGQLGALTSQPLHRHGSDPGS
Sequence of BTK kinase (Q06187 whole entry): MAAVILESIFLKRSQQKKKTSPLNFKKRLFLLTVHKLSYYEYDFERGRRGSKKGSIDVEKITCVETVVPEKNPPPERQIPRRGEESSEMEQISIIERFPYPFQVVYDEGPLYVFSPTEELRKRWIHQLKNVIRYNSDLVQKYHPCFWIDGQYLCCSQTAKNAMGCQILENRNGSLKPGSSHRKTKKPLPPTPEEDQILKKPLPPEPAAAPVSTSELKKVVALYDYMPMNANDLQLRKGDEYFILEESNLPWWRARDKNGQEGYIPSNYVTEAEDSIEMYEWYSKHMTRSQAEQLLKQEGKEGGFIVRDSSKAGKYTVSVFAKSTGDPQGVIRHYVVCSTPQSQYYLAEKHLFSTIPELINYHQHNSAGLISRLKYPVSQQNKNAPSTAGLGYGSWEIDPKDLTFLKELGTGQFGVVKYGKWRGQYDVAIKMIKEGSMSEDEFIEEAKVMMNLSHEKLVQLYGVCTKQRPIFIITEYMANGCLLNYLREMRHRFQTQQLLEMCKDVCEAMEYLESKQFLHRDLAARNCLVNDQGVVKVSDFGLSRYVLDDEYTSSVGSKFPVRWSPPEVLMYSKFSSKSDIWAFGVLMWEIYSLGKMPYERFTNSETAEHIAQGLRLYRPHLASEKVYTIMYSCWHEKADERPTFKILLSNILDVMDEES

Compound | F (po) % [2] | clearance [2] | half-life [2] | AUC [2] | Cmax [2] | Tmax [2] | IC50 [3] | IC50 [6] | IC50 [1] | IC50 [4] | IC50 [5]
C=CC(=O)N1CC2CCCC2C1c1nc(-c2ccc(C(=O)Nc3ccccn3)cc2)c2c(N)nccn12 (centres unmarked) [Example 3] | 52.55% | 57 mL/min/kg | 37.2 min | 1490 ng·h/mL | 1620 ng/mL | 16.2 min | 0.24 nM | – | 191 nM | > 30000 nM | 0.26 nM
C=CC(=O)N1C[C@H]2[C@@H]([C@H]1c1nc(-c3ccc(C(=O)Nc4ccccn4)cc3)c3c(N)nccn13)C2(C)C [Example 5] | 20.64% | 121 mL/min/kg | 7.8 min | 278 ng·h/mL | 303 ng/mL | 6 min | 0.21 nM | 21 nM | 175 nM | > 30000 nM | 3.6 nM
C=CC(=O)N1C2CCC1(c1nc(-c3ccc(C(=O)Nc4ccccn4)cc3)c3c(N)nccn13)COC2 (centres unmarked) [Example 11] | 34.59% | 36.5 mL/min/kg | 28.2 min | 1580 ng·h/mL | 1610 ng/mL | 19.8 min | 1.8 nM | 2.6 nM | 133 nM | > 30000 nM | 1.5 nM
C=CC(=O)N1CC2CCCC2[C@H]1c1nc(-c2ccc(Oc3ccccc3)cc2)c2c(N)nccn12 (some centres unmarked) [Example 96] | – | – | – | – | – | – | – | – | – | > 30000 nM | –

The next lines start with results.

F (po) % [2] | clearance [2] | half-life [2] | AUC [2] | Cmax [2] | Tmax [2] | IC50 [3] | IC50 [6] | Compound | IC50 [1] | IC50 [4] | IC50 [5]
– | – | – | – | – | – | 0.25 nM | 1.4 nM | C=CC(=O)N1C2C[C@@H](C1c1nc(-c3ccc(C(=O)Nc4ccccn4)cc3)c3c(N)nccn13)N(C(C)=O)C2 (some centres unmarked) [Example 18] | 177 nM | > 30000 nM | 1.6 nM
36.56% | 58.5 mL/min/kg | 36 min | 1040 ng·h/mL | 1160 ng/mL | 15 min | 0.38 nM | 3.3 nM | C=CC(=O)N1[C@@H]2CC[C@@H](C2)[C@H]1c1nc(-c2ccc(C(=O)Nc3ccccn3)cc2)c2c(N)nccn12 [Example 22, 4-(3-((1R,3S,4S)-2-acryloyl-2-azabicyclo[2.2.1]heptan-3-yl)-8-aminoimidazo[1,5-a]pyrazin-1-yl)-N-(pyridin-2-yl)benzamide] | 182 nM | > 30000 nM | 4.2 nM
21.89% | 38 mL/min/kg | 18 min | 971 ng·h/mL | 1120 ng/mL | 15 min | 0.41 nM | 5.2 nM | CC#CC(=O)N1C2CC[C@@H](C2)C1c1nc(-c2ccc(C(=O)Nc3cc(C(F)(F)F)ccn3)cc2)c2c(N)nccn12 (some centres unmarked) [Example 47] | 172 nM | > 30000 nM | 4.6 nM
27.12% | 57.5 mL/min/kg | 31.2 min | 770 ng·h/mL | 1110 ng/mL | 12.6 min | 0.13 nM | 4.9 nM | C=CC(=O)N1C2CC[C@@H](C2)C1c1nc(-c2ccc(C(C)(O)c3ccccc3)cc2)c2c(N)nccn12 (some centres unmarked) [Example 79] | 164 nM | > 30000 nM | 1.2 nM

From patent US10793576B2, “Compound used as Bruton's tyrosine kinase inhibitor and preparation method and application thereof” (Chengdu Brilliant Pharmaceutical Co., LTD., priority 2017, dated 2020)
